Series [1] deals with Corn Earworm (CEW) (Helicoverpa zea). Kind of series: Bioassay on corn earworm (CEW), 128-well diet tray assay. The class given is in vivo. The following applies: Helicoverpa zea; Corn earworm, 50 μg/cm^2; read-out: % Mortality CEW 50 μg/cm^2. The method, boiled down:
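Second-instar Helicoverpa zea larvae (one to five per well) placed on artificial diet treated with 50 μg/cm^2 compound in 90:10 acetone-water, dried, eight wells per compound. Held at 25 °C, 14:10 light-dark, five to seven days; percent mortality averaged over wells.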

Series [2] deals with Beet Armyworm (BAW) (Spodoptera exigua). As to the kind of experiment: Bioassay on beet armyworm (BAW), 128-well diet tray assay. In kind it is in vivo. The following applies: Spodoptera exigua; Beet armyworm, 50 μg/cm^2; read-out: % Mortality BAW 50 μg/cm^2. The method, boiled down:
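Second-instar Spodoptera exigua larvae, one to five per well, on artificial diet treated with 50 μg/cm^2 compound in 90:10 acetone-water and dried, eight wells per compound. Held at 25 °C, 14:10 light-dark for five to seven days; percent mortality averaged over wells.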

The test system of series [3] is Green Peach Aphid (GPA) (Myzus persicae). As to the kind of experiment: Bioassay on green peach aphid (GPA), foliar spray on cabbage seedlings. The class given is in vivo. Conditions: 72 h, read-out: % Mortality GPA 200 ppm.

The structures appear in SMILES notation.

The melting point is the temperature of the solid-liquid transition.

Take `CC(C)Cc1ccccc1N1CCCS/C1=N\N=C\c1ccc(-c2ncn(-c3ccc(OC(F)(F)F)cc3)n2)cc1` [Compound 193C]: the pest or weed control at 50 µg/cm2, 50 µg/cm2 in series [1] and in series [2] was 50 to 100% throughout. Besides, in series [3], the pest or weed control at 200 ppm is 0 to 80%.
Turning to `FC(F)(F)Oc1ccc(-n2cnc(-c3ccc(/C=N/N=C4\SCCCN4c4ccccc4-c4ccccc4)cc3)n2)cc1` [Compound 194C], the pest or weed control at 50 µg/cm2, 50 µg/cm2 in series [1] and in series [2] was 50 to 100% each time. Further, the pest or weed control at 200 ppm in series [3] is 0 to 80%.
Regarding `Cc1ccccc1N1CCCS/C1=N\N=C\c1ccc(-c2ncn(-c3ccc(OC(F)(F)F)cc3)n2)cc1` [Compound 195C], the pest or weed control at 50 µg/cm2, 50 µg/cm2 in series [1] and in series [2] was 50 to 100% in each case. In series [3], the pest or weed control at 200 ppm is 0 to 80%.
As for `COc1ccc(N2CCCS/C2=N\N=C\c2ccc(-c3ncn(-c4ccc(OC(F)(F)F)cc4)n3)cc2)cc1` [Compound 202C], the pest or weed control at 50 µg/cm2, 50 µg/cm2 in series [1] and in series [2] was 50 to 100% each time. The pest or weed control at 200 ppm in series [3] was in the range of 0 to 80%.
For the compound `Cc1cc(Br)cc(C)c1N1CCCS/C1=N\N=C\c1ccc(-c2ncn(-c3ccc(OC(F)(F)F)cc3)n2)cc1` [Compound 203C], the pest or weed control at 50 µg/cm2, 50 µg/cm2 in series [1] and in series [2] was 50 to 100% in each case. For the same compound, in series [3], the pest or weed control at 200 ppm is 0 to 80%.
Regarding `COc1ccc(C)cc1N1CCCS/C1=N\N=C\c1ccc(-c2ncn(-c3ccc(OC(F)(F)F)cc3)n2)cc1` [Compound 204C], the pest or weed control at 50 µg/cm2, 50 µg/cm2 in series [1] and in series [2] was 50 to 100% throughout. Besides, the pest or weed control at 200 ppm in series [3] was 0 to 80%.
As to `Cc1ncccc1N1CCCS/C1=N\N=C\c1ccc(-c2ncn(-c3ccc(OC(F)(F)F)cc3)n2)cc1` [Compound 205C], the pest or weed control at 50 µg/cm2, 50 µg/cm2 in series [1] and in series [2] was 50 to 100% in each case. In addition, the pest or weed control at 200 ppm in series [3] is 0 to 80%.
Take `CCc1cccc(C)c1N1/C(=N/N=C/c2ccc(-c3ncn(-c4ccc(OC(F)(F)F)cc4)n3)cc2)SCCC1C` (stereo not drawn) [Compound 213C]: the pest or weed control at 50 µg/cm2, 50 µg/cm2 in series [1] and in series [2] was 50 to 100% throughout. Further, the pest or weed control at 200 ppm in series [3] was 0 to 80%.
Take `CC(C)c1ccccc1NC(=S)N/N=C/c1ccc(-c2ncn(-c3ccc(OC(F)(F)C(F)(F)F)cc3)n2)cc1` [Compound I-33]: the melting point was 214 to 216 °C.
In the case of `CC(C)c1ccccc1NC(=S)N/N=C/c1ccc(-c2ncn(-c3ccc4c(c3)OC(F)(F)O4)n2)cc1` [Compound I-36], the melting point is 200 °C (dec.).
The same measure, in the same setting: next, `CC(C)c1ccc(F)cc1NC(=S)NN` [Compound I-43]: 133 to 135 °C.
Consider `CC(C)c1cc(F)ccc1NC(=S)NN` [Compound I-47], for which the melting point is 163 to 217 °C.
On the same count and under the same terms, the value for `CC(C)c1c(F)cccc1NC(=S)NN` [Compound I-51] was 158 to 160 °C; that for `CC(F)(F)c1ccc(-n2cnc(-c3ccc(C=O)cc3)n2)cc1` [Compound I-62] was 139 to 141 °C.

The values are drawn from patent publication US9018388B2, “Pesticidal compositions and processes related thereto” (Dow AgroSciences LLC, priority 2012, dated 2015).
